Measurements taken from the supplement of paper PMC7840683.
± gives the standard deviation of the averaged measurements.

Test system: HepaRG
Test: LDH release cytotoxicity, % of total lysis control; higher = more cytotoxic
Conditions: 48 h
Procedure, shortened: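 The CytoTox-ONE kit was used to read LDH in 50 µL spent medium as resorufin fluorescence on a Tecan Safire, with 0.1% Triton X added to total lysis wells. Beforehand, single-lot HepaRG cells on collagen I-coated 96-well plates had been exposed in duplicate for 48 h to eight-point half-log series (top 100 µM) in serum-free induction medium containing 0.5% DMSO. Percent cytotoxicity was normalized against on-plate vehicle and total lysis controls and averaged over duplicates.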

Structure (SMILES)	LDH release cytotoxicity (0.03162 µM)	LDH release cytotoxicity (0.1 µM)	LDH release cytotoxicity (0.3162278 µM)	LDH release cytotoxicity (1 µM)	LDH release cytotoxicity (3.16228 µM)	LDH release cytotoxicity (10 µM)	LDH release cytotoxicity (31.6228 µM)	LDH release cytotoxicity (100 µM)	LDH release cytotoxicity (0.01581 µM)	LDH release cytotoxicity (0.05 µM)	LDH release cytotoxicity (0.1581139 µM)	LDH release cytotoxicity (0.5 µM)	LDH release cytotoxicity (1.5811388 µM)	LDH release cytotoxicity (5 µM)	LDH release cytotoxicity (15.8114 µM)	LDH release cytotoxicity (50 µM)	LDH release cytotoxicity (0.031623 µM)	LDH release cytotoxicity (0.316228 µM)
CC12CCC(=O)C=C1CCC1C2CCC2(C)C1CCC2(C)O (stereo unspecified) [17-Methyltestosterone]	-1.79 ± 1.4%	-1.97 ± 0.62%	-1.97 ± 1.4%	-1.95 ± 2.3%	-2.67 ± 0.81%	-2.51 ± 1.4%	-2.52 ± 1.9%	-1.06 ± 1.5%	–	–	–	–	–	–	–	–	–	–
CN1CSC(=S)N(C)C1 [Dazomet]	-1.04 ± 1.2%	-0.753 ± 0.32%	-1.34 ± 1.3%	-1.86 ± 0.33%	-2.37 ± 0.28%	-3.44 ± 0.043%	13.1 ± 2.2%	78 ± 4.3%	–	–	–	–	–	–	–	–	–	–
O=C(O)COc1nc(Cl)c(Cl)cc1Cl [Triclopyr]	-0.728 ± 0.43%	-2.08 ± 0.22%	-1.59 ± 0.14%	-1.77 ± 0.51%	-1.2 ± 0.3%	0.578 ± 0.15%	34.7 ± 3.1%	45.6 ± 2.5%	–	–	–	–	–	–	–	–	–	–
CCCCOC(=O)c1ccc(O)cc1 [Butylparaben]	-1.57 ± 0.12%	-1.1 ± 0.021%	-1.42 ± 0.72%	-2.15 ± 1.2%	-2.51 ± 0.09%	-2.14 ± 0.23%	-2.11 ± 0.81%	-0.69 ± 0.9%	–	–	–	–	–	–	–	–	–	–
CCCCCCCCC(=O)O [Nonanoic acid]	-1.22 ± 1.1%	-1.24 ± 0.71%	-0.597 ± 0.11%	-1.56 ± 0.047%	-2.05 ± 0.21%	-1.39 ± 0.62%	-1.11 ± 0.22%	3.09 ± 0.27%	–	–	–	–	–	–	–	–	–	–
Oc1ccc(C(c2ccc(O)cc2)(C(F)(F)F)C(F)(F)F)cc1 [Bisphenol AF]	-1.31 ± 0.014%	-1.4 ± 0.37%	-1.16 ± 0.18%	-1.45 ± 0.031%	-0.575 ± 0.055%	-1.57 ± 0.15%	-1.62 ± 0.47%	83.2 ± 2.1%	–	–	–	–	–	–	–	–	–	–
CCCCCCCCOC(=O)c1ccccc1C(=O)OCCCCCCCC [Di-n-octyl phthalate]	-0.293 ± 0.47%	-1.33 ± 0.57%	-0.746 ± 0.37%	-0.29 ± 0.31%	-1.1 ± 0.62%	-0.705 ± 0.2%	-0.176 ± 0.076%	5.1 ± 2%	–	–	–	–	–	–	–	–	–	–
c1ccc2c(c1)ccc1ccccc12 [Phenanthrene]	-0.492 ± 0.39%	-0.112 ± 0.47%	-1.07 ± 0.35%	-1.03 ± 0.62%	-1.55 ± 0.095%	-0.467 ± 0.087%	-0.00782 ± 0.7%	0.23 ± 0.29%	–	–	–	–	–	–	–	–	–	–
O=C(O)C(F)(F)C(F)(F)C(F)(F)C(F)(F)C(F)(F)C(F)(F)C(F)(F)F [Ammonium perfluorooctanoate]	-2.46 ± 0.051%	-2 ± 0.26%	-1.7 ± 0.71%	-2.4 ± 0.45%	-1.55 ± 0.62%	-1.1 ± 0.38%	-0.665 ± 0.52%	5.278 ± 0.027%	–	–	–	–	–	–	–	–	–	–
O=C1NC(=O)C(c2ccccc2)(c2ccccc2)N1 [5,5-Diphenylhydantoin]	–	–	–	–	–	–	–	–	-5.31 ± 1.9%	-5.08 ± 1.3%	-5.88 ± 1%	-6.19 ± 1.8%	-4.95 ± 1.6%	40.5 ± 6.5%	50.1 ± 6.8%	44.7 ± 3.1%	–	–
CCOC(=O)c1ccccc1C(=O)OCC [Diethyl phthalate]	-0.196 ± 0.57%	-0.436 ± 0.76%	-0.318 ± 0.092%	-1.12 ± 0.43%	-0.475 ± 0.13%	-1.03 ± 0.2%	-0.196 ± 0.45%	5.77 ± 0.6%	–	–	–	–	–	–	–	–	–	–
Nc1nc(N)c2nc(CNc3ccc(C(=O)NC(CCC(=O)O)C(=O)O)cc3)cnc2n1 (stereo unspecified) [Aminopterin]	-11.8 ± 0.096%	-7.61 ± 0.6%	-7.45 ± 1.3%	-7.83 ± 0.65%	-7.31 ± 0.2%	-9.44 ± 0.67%	-9.84 ± 0.9%	-9.19 ± 0.42%	–	–	–	–	–	–	–	–	–	–
OCC(O)CO [Glycerol]	-1.51 ± 0.67%	-1.11 ± 0.27%	-1.56 ± 0.12%	-1.79 ± 0.27%	-1.43 ± 0.14%	-1.14 ± 0.37%	-0.926 ± 0.83%	-0.545 ± 0.22%	–	–	–	–	–	–	–	–	–	–
COc1cccc(C(=O)NN(C(=O)c2cc(C)cc(C)c2)C(C)(C)C)c1C [Methoxyfenozide]	-1.25 ± 0.79%	-1.31 ± 0.37%	-0.377 ± 0.4%	-1.71 ± 0.41%	-1.43 ± 0.52%	-0.152 ± 0.72%	0.244 ± 0.32%	3.13 ± 0.26%	–	–	–	–	–	–	–	–	–	–
FC(F)(F)C(F)(F)C(F)(F)C(F)(F)C(F)(F)C(F)(F)CCI [1H,1H,2H,2H-Perfluorooctyl iodide]	-2.1 ± 0.36%	-1.68 ± 0.34%	-1.96 ± 0.36%	-2.44 ± 0.81%	-1.64 ± 0.62%	-1.16 ± 0.9%	-0.32 ± 0.46%	1 ± 0.87%	–	–	–	–	–	–	–	–	–	–
CC12C=CC(=O)C=C1CCC1C2C(=O)CC2(C)C1CCC2(O)C(=O)CO (stereo unspecified) [Prednisone]	-1.86 ± 0.28%	-1.83 ± 0.41%	-2.31 ± 0.061%	-1.54 ± 0.39%	-1.77 ± 0.042%	-1.84 ± 0.37%	-1.61 ± 0.33%	-0.167 ± 0.094%	–	–	–	–	–	–	–	–	–	–
NC(=O)O [Ammonium carbamate]	–	-2.14 ± 1.1%	–	-2.11 ± 1.4%	-2.31 ± 0.54%	-1.92 ± 0.74%	-0.516 ± 0.34%	0.311 ± 0.094%	–	–	–	–	–	–	–	–	-0.98 ± 0.56%	-3.38 ± 0.37%
CCCCCOC(=O)COc1cc(N2C(=O)C3=C(CCCC3)C2=O)c(F)cc1Cl [Flumiclorac-pentyl]	-1.94 ± 0.45%	-1.12 ± 1.1%	-0.329 ± 0.33%	-1.17 ± 0.56%	-0.793 ± 0.22%	-0.278 ± 0.39%	-1.05 ± 0.035%	0.436 ± 0.073%	–	–	–	–	–	–	–	–	–	–
CCc1ccc(C(=O)NN(C(=O)c2cc(C)cc(C)c2)C(C)(C)C)cc1 [Tebufenozide]	-0.939 ± 1.3%	0.194 ± 0.33%	-0.662 ± 1.2%	-0.0494 ± 1.4%	-0.0064 ± 0.51%	0.106 ± 0.49%	0.645 ± 0.25%	11.3 ± 0.39%	–	–	–	–	–	–	–	–	–	–
CC(C)CCCCCCOC(=O)C1CCCCC1C(=O)OCCCCCCC(C)C (stereo unspecified) [Diisononyl cyclohexane-1,2-dicarboxylate]	-0.786 ± 0.8%	-0.599 ± 0.29%	-1.09 ± 0.054%	-0.000557 ± 0.59%	-0.402 ± 0.22%	0.246 ± 0.61%	-0.258 ± 0.077%	1.07 ± 0.34%	–	–	–	–	–	–	–	–	–	–
OB(O)O [Boric acid (H3BO3)]	-0.989 ± 0.041%	-0.753 ± 1.6%	0.0737 ± 1.3%	-0.582 ± 0.41%	-0.954 ± 0.45%	-0.232 ± 0.15%	0.368 ± 0.65%	0.851 ± 0.63%	–	–	–	–	–	–	–	–	–	–
CN1CC=NC1=S [Methimazole]	-0.734%	-1.69 ± 0.39%	-2.04 ± 0.31%	-2.56 ± 0.11%	-1.77 ± 0.33%	-1.81 ± 0.21%	-1.83 ± 0.38%	-0.15 ± 0.28%	–	–	–	–	–	–	–	–	–	–
COc1ccc(C(=CC(=O)N2CCOCC2)c2ccc(Cl)cc2)cc1OC [Dimethomorph]	-0.689 ± 0.5%	-1.52 ± 0.24%	-1.7 ± 0.055%	-1.1 ± 0.47%	-0.768 ± 0.71%	-0.565 ± 0.54%	-0.618 ± 0.33%	1.09 ± 0.43%	–	–	–	–	–	–	–	–	–	–
O=C(Oc1ccc(Br)cc1)N1CCN2CCC1CC2	-1.87 ± 0.45%	-3.23 ± 2.2%	-0.984 ± 0.16%	-1.45 ± 0.27%	-1.43 ± 0.56%	-1.29 ± 0.41%	-0.718 ± 0.41%	0.972 ± 0.95%	–	–	–	–	–	–	–	–	–	–
C#CCOC(=O)C(C)Oc1ccc(Oc2ncc(Cl)cc2F)cc1 (stereo unspecified) [Clodinafop-propargyl]	-1.35 ± 0.68%	-1.3 ± 0.75%	-1.68 ± 0.23%	-0.544 ± 0.27%	-1.29 ± 0.021%	-0.851 ± 0.15%	-0.0728 ± 0.36%	0.27 ± 0.25%	–	–	–	–	–	–	–	–	–	–
O=[N+]([O-])c1ccc(Cl)cc1 [1-Chloro-4-nitrobenzene]	-0.012 ± 0.35%	-0.728 ± 0.66%	0.037 ± 0.14%	-0.523 ± 0.12%	-0.0534 ± 0.38%	0.685 ± 0.47%	5.08 ± 0.88%	18 ± 1.8%	–	–	–	–	–	–	–	–	–	–
Cc1ccc(N(C)C)cc1 [N,N,4-Trimethylaniline]	-1.35 ± 0.18%	-2.34 ± 0.1%	-1.31 ± 0.2%	-1.01 ± 0.47%	-1.56 ± 1.1%	-0.631 ± 0.84%	0.0145 ± 0.88%	1.9 ± 0.59%	–	–	–	–	–	–	–	–	–	–
